Entries after “also recorded” stand apart in the source; their conditions may differ.

Test [1] relates to E9.0 PROX1::GFP reporter mouse embryo. As to the kind of experiment: E9.0 PROX1::GFP reporter mouse whole embryo culture with BMS493. The following applies: after 2 days, vs DMSO control, FIGS. 11A and 11B. The source says:
FIGS. 11A and 11B. PROX1 inhibition by BMS493 exposure with E9.0 PROX1::GFP reporter mouse embryo explant culture. […] Retinoic acid receptors antagonist BMS493 treated group was compared with control (adding DMSO) group. 11A. Bright field image and GFP fluorescent image for embryo after culture. 11B. The area of GFP expressing parts was quantified from GFP image in (a). Scale bar: 1 mm
(§1) In support, Applicant exposed the bAP organoids at D9 to various RA signaling agonists or antagonists. […] Lateral plate mesoderm population acts as an activator for RA signaling during the specification in vivo^22-24. To implicate the cellular source for RA in the model system, RA signaling related genes were assessed in the isolated epithelial and non-epithelial cell populations. […] Complementing this, exposing only the posterior gut spheroid, and not the anterior gut spheroid to BMS493 prior to fusion suppressed the protein-level induction of HHEX and PDX1 (FIG. 10). […] Taken together, HBP progenitor self-specification derived from posterior region in boundary organoid model system is regulated by RA signals, and may be supported by co-differentiating anterior non-epithelial, most likely mesenchymal, lineages.
The Rotator-type Bottle Culture System (Ikemoto Scientific Technology Co., Ltd) was used for whole embryo culture. […]

The test system of test [2] is bAP organoids. As to the kind of experiment: bAP organoids exposed to RA signaling agonists or antagonists, gene expression by qPCR. The following applies: bAP organoids exposed at D9; Day 11, three days culture; FIG. 2G. The test is classed as cell-based, human. As to the method:
FIG. 2A-2I. Self-emergence of hepato-biliary-pancreatic progenitors from boundary organoid without inductive factors. 2A. Generating PROX1-tdTomato reporter line by CRISPR-Cas9 gene editing system. 2B. PROX1-tdTomato expression in established PROX1 reporter iPSCs from Day 9 to Day 11. 2C. PROX1-tdTomato positive area in each organoid. AP, AA and PP combinations were evaluated. The tdTomato expression was confirmed in the cell membrane of boundary organoids in AP combination. 2D. Hepatic invagination in mouse liver primordium explant (Prox1::GFP) and human iPSC-derived boundary organoids (PROX1::m-tdTomato). 2E. The immunostaining of PROX1 in E8.75 mice embryo and boundary organoids at Day 13. 2F. Transcriptomic characterization of boundary organoids. Anterior, boundary, and posterior domains were dissected, separated, and applied for RNA sequencing. […] Heatmap was separated into 8 detailed groups (C1-C8) by unbiased hierarchical clustering. […] 2G. Gene expression of HHEX, PDX1, SOX2, and CDX2 at Day 11 with three days culture of retinoic acid, BMS493, R-75251, or WIN18446. 2H. […]
In support, Applicant exposed the bAP organoids at D9 to various RA signaling agonists or antagonists. […] To implicate the cellular source for RA in the model system, RA signaling related genes were assessed in the isolated epithelial and non-epithelial cell populations. […]
On the technique in general: Real-time PCR tracks product formation cycle by cycle.

In test [3] the test system is posterior gut spheroid. As to the kind of experiment: BMS493 pretreatment of anterior or posterior gut spheroids before fusion, HHEX and PDX1 immunostaining. The test is classed as cell-based, human. The following applies: only posterior gut spheroid exposed prior to fusion; vs untreated control; FIG. 10.
Text: FIG. 10. Abolishment of HHEX and PDX1 induction in posterior gut specific BMS493. BMS493 pretreated anterior or posterior gut spheroids were fused to induce HBP anlage formation. […] Scale bar: 200 μm
as §1
For whole mount immunohistochemical staining, spheroid and organoid were collected from Matrigel™ and removed remaining Matrigel™ by treating with Cell recovery solution at 4° C. for 30 min. The tissues were washed by PBS and were fixed in 4% PFA at 4° C. for overnight. […]

Test [4] deals with Cholecystokinin A Receptor (CCKAR) expressing organoids. As to the kind of experiment: CCK exposure of organoids: ductal response and amylase ELISA. The test is classed as cell-based, human. The text has this: FIG. 3A-3O. Modeling human hepato-biliary-pancreatic organogenesis. 3A. Illustration of dissection of PROX1 positive region from HBP organoids and image of before/after dissection. 3B. Optimization of cultured system with 1) Floating, 2) Embedded into Matrigel™, 3) Embedded into Matrigel™ and cultured with Transwell™ from D13, 4). Dissected, embedded into Matrigel™, and cultured with Transwell™ from D13. […] 3C. Morphogenesis of boundary organoids through 2 days from Day 13. 3D. Morphogenetical change of PROX1 dissected tissue from boundary organoids through 30 days of air-liquid interface cultured system. 3E. Stereomicroscopic image of Day 37 organoids. 3F. Boundary organoid has tdTomato expressing hepatobiliary tissues branched out for putative pancreatic domains, similar to cultured mouse E10.5 derived hepato-biliary-pancreas. […]
To determine whether longer-term culture can produce more mature tissue, organoids were cultured until D90. […] Furthermore, the immunofluorescent staining detected the expression of the pancreas marker PDX1 and NGN3, the liver marker PROX1, and the bile duct markers CK19 and SOX9 in the organoids (FIG. 3H). […] Given the Cholecystokinin A Receptor (CCKAR) expression in the organoids (FIG. 3N), organoids were exposed to CCK and the pancreatic secretory function was analyzed with an amylase Enzyme-linked immune sorbent assay (ELISA). […]

On to `CC1(C)CC=C(C#Cc2ccccc2)c2cc(/C=C/c3ccc(C(=O)O)cc3)ccc21` [BMS493], for which the “PROX1 expressing cells (GFP area)” value in test [1] is “significant inhibition”. For the same molecule, in test [2], the “gene expression of HHEX” value is given as “strongly suppressed” and the “gene expression of PDX1” value is recorded as “strongly suppressed”. In addition, the “protein-level induction of HHEX and PDX1 at boundary” value in test [3] is “suppressed; also recorded: inhibited”.
cholecystokinin [CCK]: the “amylase secretion in supernatants (ELISA)” value in test [4] (CCK treated vs untreated controls, 3 days-CCK, FIG. 3P) was “increased”. Also, the “ductal structures response to CCK” value in test [4] (on the following day, FIG. 3O) is on record as “constricted”.
